# According to PubChem BioAssay (NCI):
#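 Five compound concentrations were applied to cells in 96-well plates for 48 hours; endpoints were derived by simple linear interpolation of the resulting dose-response curve. The concentration for full growth arrest is given as TGI.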
# Key:
# Assay in all cases: NCI tumour cell line growth inhibition, 48 h
# MDA-MB-435 = tested on: MDA-MB-435
# RXF 393 renal = tested on: RXF 393 renal
# SK-OV-3 ovarian = tested on: SK-OV-3 ovarian
# HT29 colon = tested on: HT29 colon
# HS 578T breast = tested on: HS 578T breast
# COLO 205 colon = tested on: COLO 205 colon
# SNB-19 CNS = tested on: SNB-19 CNS
# SK-MEL-5 melanoma = tested on: SK-MEL-5 melanoma
# 786-0 renal = tested on: 786-0 renal
# HCC-2998 colon = tested on: HCC-2998 colon
# MALME-3M melanoma = tested on: MALME-3M melanoma
# BT-549 breast = tested on: BT-549 breast
# SF-268 CNS = tested on: SF-268 CNS
# TK-10 renal = tested on: TK-10 renal
# HCT-15 colon = tested on: HCT-15 colon
# T-47D breast = tested on: T-47D breast
# SF-539 CNS = tested on: SF-539 CNS
# UO-31 renal = tested on: UO-31 renal
# SK-MEL-2 melanoma = tested on: SK-MEL-2 melanoma
# CCRF-CEM leukemia = tested on: CCRF-CEM leukemia
# IGROV1 ovarian = tested on: IGROV1 ovarian
# OVCAR-4 ovarian = tested on: OVCAR-4 ovarian
# KM12 colon = tested on: KM12 colon
# OVCAR-3 ovarian = tested on: OVCAR-3 ovarian
# K-562 leukemia = tested on: K-562 leukemia
# SN12C renal = tested on: SN12C renal
# NCI-H460 lung = tested on: NCI-H460 lung
# HL-60(TB) leukemia = tested on: HL-60(TB) leukemia
# OVCAR-5 ovarian = tested on: OVCAR-5 ovarian
# NCI-H522 lung = tested on: NCI-H522 lung
# HCT-116 colon = tested on: HCT-116 colon
# HOP-92 NSCLC = tested on: HOP-92 NSCLC
# A549 NSCLC = tested on: A549 NSCLC
# MCF7 breast = tested on: MCF7 breast
# MDA-MB-231 breast = tested on: MDA-MB-231 breast
# RPMI-8226 leukemia = tested on: RPMI-8226 leukemia
# UACC-62 melanoma = tested on: UACC-62 melanoma
# MOLT-4 leukemia = tested on: MOLT-4 leukemia
# ACHN renal = tested on: ACHN renal
# SW-620 colon = tested on: SW-620 colon
# U251 CNS = tested on: U251 CNS
# CAKI-1 renal = tested on: CAKI-1 renal
# EKVX NSCLC = tested on: EKVX NSCLC
# LOX IMVI melanoma = tested on: LOX IMVI melanoma
# SNB-75 CNS = tested on: SNB-75 CNS
# A498 renal = tested on: A498 renal
# NCI-H23 lung = tested on: NCI-H23 lung
# MDA-N = tested on: MDA-N
# HOP-62 NSCLC = tested on: HOP-62 NSCLC
# SK-MEL-28 melanoma = tested on: SK-MEL-28 melanoma
# M14 melanoma = tested on: M14 melanoma
# NCI/ADR-RES ovarian = tested on: NCI/ADR-RES ovarian
# OVCAR-8 ovarian = tested on: OVCAR-8 ovarian
# DU-145 prostate = tested on: DU-145 prostate
# UACC-257 melanoma = tested on: UACC-257 melanoma
# NCI-H226 lung = tested on: NCI-H226 lung
# PC-3 prostate = tested on: PC-3 prostate
# SF-295 CNS = tested on: SF-295 CNS
smiles,measurement,setting,value
COc1ccc2nccc(/C=C/c3ccc(N(C)C)cc3)c2c1,TGI,MDA-MB-435,7.49 µM
same,TGI,RXF 393 renal,> 10 µM
same,TGI,SK-OV-3 ovarian,> 10 µM
same,TGI,HT29 colon,> 10 µM
same,TGI,HS 578T breast,> 10 µM
same,TGI,COLO 205 colon,> 10 µM
same,TGI,SNB-19 CNS,> 10 µM
same,TGI,SK-MEL-5 melanoma,> 10 µM
same,TGI,786-0 renal,> 10 µM
same,TGI,HCC-2998 colon,> 10 µM
same,TGI,MALME-3M melanoma,> 10 µM
same,TGI,BT-549 breast,> 10 µM
same,TGI,SF-268 CNS,> 10 µM
same,TGI,TK-10 renal,> 10 µM
same,TGI,HCT-15 colon,> 10 µM
same,TGI,T-47D breast,> 10 µM
same,TGI,SF-539 CNS,> 10 µM
same,TGI,UO-31 renal,> 10 µM
same,TGI,SK-MEL-2 melanoma,> 10 µM
same,TGI,CCRF-CEM leukemia,> 10 µM
same,TGI,IGROV1 ovarian,> 10 µM
same,TGI,OVCAR-4 ovarian,> 10 µM
same,TGI,KM12 colon,> 10 µM
same,TGI,OVCAR-3 ovarian,> 10 µM
same,TGI,K-562 leukemia,> 10 µM
same,TGI,SN12C renal,> 10 µM
same,TGI,NCI-H460 lung,> 10 µM
same,TGI,HL-60(TB) leukemia,> 10 µM
same,TGI,OVCAR-5 ovarian,> 10 µM
same,TGI,NCI-H522 lung,> 10 µM
same,TGI,HCT-116 colon,> 10 µM
same,TGI,HOP-92 NSCLC,> 10 µM
same,TGI,A549 NSCLC,> 10 µM
same,TGI,MCF7 breast,> 10 µM
same,TGI,MDA-MB-231 breast,> 10 µM
same,TGI,RPMI-8226 leukemia,> 10 µM
same,TGI,UACC-62 melanoma,> 10 µM
same,TGI,MOLT-4 leukemia,> 10 µM
same,TGI,ACHN renal,> 10 µM
same,TGI,SW-620 colon,> 10 µM
same,TGI,U251 CNS,> 10 µM
same,TGI,CAKI-1 renal,> 10 µM
same,TGI,EKVX NSCLC,> 10 µM
same,TGI,LOX IMVI melanoma,> 10 µM
same,TGI,SNB-75 CNS,> 10 µM
same,TGI,A498 renal,> 10 µM
same,TGI,NCI-H23 lung,> 10 µM
same,TGI,MDA-N,> 10 µM
same,TGI,HOP-62 NSCLC,> 10 µM
same,TGI,SK-MEL-28 melanoma,> 10 µM
same,TGI,M14 melanoma,> 10 µM
same,TGI,NCI/ADR-RES ovarian,> 10 µM
same,TGI,OVCAR-8 ovarian,> 10 µM
same,TGI,DU-145 prostate,> 10 µM
same,TGI,UACC-257 melanoma,> 10 µM
same,TGI,NCI-H226 lung,> 10 µM
same,TGI,PC-3 prostate,> 10 µM
same,TGI,SF-295 CNS,> 10 µM
CC(CN(C)C)C(C#N)(c1ccccc1)c1ccccc1 (configuration not stated),TGI,MDA-MB-435,> 100 µM
same,TGI,RXF 393 renal,> 100 µM
same,TGI,SK-OV-3 ovarian,> 100 µM
same,TGI,HT29 colon,> 100 µM
same,TGI,HS 578T breast,> 100 µM
same,TGI,COLO 205 colon,> 100 µM
same,TGI,SNB-19 CNS,> 100 µM
same,TGI,SK-MEL-5 melanoma,> 100 µM
same,TGI,786-0 renal,> 100 µM
same,TGI,HCC-2998 colon,> 100 µM
same,TGI,MALME-3M melanoma,> 100 µM
same,TGI,BT-549 breast,> 100 µM
same,TGI,SF-268 CNS,> 100 µM
same,TGI,TK-10 renal,> 100 µM
same,TGI,HCT-15 colon,> 100 µM
same,TGI,T-47D breast,> 100 µM
same,TGI,SF-539 CNS,> 100 µM
same,TGI,UO-31 renal,> 100 µM
same,TGI,SK-MEL-2 melanoma,> 100 µM
same,TGI,CCRF-CEM leukemia,> 100 µM
same,TGI,IGROV1 ovarian,> 100 µM
same,TGI,OVCAR-4 ovarian,> 100 µM
same,TGI,KM12 colon,> 100 µM
same,TGI,OVCAR-3 ovarian,> 100 µM
same,TGI,K-562 leukemia,> 100 µM
same,TGI,SN12C renal,> 100 µM
same,TGI,NCI-H460 lung,> 100 µM
same,TGI,HL-60(TB) leukemia,> 100 µM
same,TGI,OVCAR-5 ovarian,> 100 µM
same,TGI,NCI-H522 lung,> 100 µM
same,TGI,HCT-116 colon,> 100 µM
same,TGI,HOP-92 NSCLC,> 100 µM
same,TGI,A549 NSCLC,> 100 µM
same,TGI,MCF7 breast,> 100 µM
same,TGI,MDA-MB-231 breast,> 100 µM
same,TGI,RPMI-8226 leukemia,> 100 µM
same,TGI,UACC-62 melanoma,> 100 µM
same,TGI,MOLT-4 leukemia,> 100 µM
same,TGI,ACHN renal,> 100 µM
same,TGI,SW-620 colon,> 100 µM
same,TGI,U251 CNS,> 100 µM
same,TGI,CAKI-1 renal,> 100 µM
same,TGI,EKVX NSCLC,> 100 µM
same,TGI,LOX IMVI melanoma,> 100 µM
same,TGI,SNB-75 CNS,> 100 µM
same,TGI,A498 renal,> 100 µM
same,TGI,NCI-H23 lung,> 100 µM
same,TGI,MDA-N,> 100 µM
same,TGI,HOP-62 NSCLC,> 100 µM
same,TGI,SK-MEL-28 melanoma,> 100 µM
same,TGI,M14 melanoma,> 100 µM
same,TGI,NCI/ADR-RES ovarian,> 100 µM
same,TGI,OVCAR-8 ovarian,> 100 µM
same,TGI,DU-145 prostate,> 100 µM
same,TGI,UACC-257 melanoma,> 100 µM
same,TGI,NCI-H226 lung,> 100 µM
same,TGI,PC-3 prostate,> 100 µM
same,TGI,SF-295 CNS,> 100 µM
O=C(O)/C(=C/c1ccccc1)c1ccccc1,TGI,MDA-MB-435,> 100 µM
same,TGI,RXF 393 renal,> 100 µM
same,TGI,SK-OV-3 ovarian,> 100 µM
same,TGI,HT29 colon,> 100 µM
same,TGI,HS 578T breast,> 100 µM
same,TGI,SNB-19 CNS,> 100 µM
same,TGI,SK-MEL-5 melanoma,> 100 µM
same,TGI,786-0 renal,> 100 µM
same,TGI,HCC-2998 colon,> 100 µM
same,TGI,MALME-3M melanoma,> 100 µM
same,TGI,BT-549 breast,> 100 µM
same,TGI,SF-268 CNS,> 100 µM
same,TGI,TK-10 renal,> 100 µM
same,TGI,HCT-15 colon,> 100 µM
same,TGI,T-47D breast,> 100 µM
same,TGI,SF-539 CNS,> 100 µM
same,TGI,UO-31 renal,> 100 µM
same,TGI,SK-MEL-2 melanoma,> 100 µM
same,TGI,CCRF-CEM leukemia,> 100 µM
same,TGI,IGROV1 ovarian,> 100 µM
same,TGI,OVCAR-4 ovarian,> 100 µM
same,TGI,KM12 colon,> 100 µM
same,TGI,OVCAR-3 ovarian,> 100 µM
same,TGI,K-562 leukemia,> 100 µM
same,TGI,SN12C renal,> 100 µM
same,TGI,NCI-H460 lung,> 100 µM
same,TGI,HL-60(TB) leukemia,> 100 µM
same,TGI,OVCAR-5 ovarian,> 100 µM
same,TGI,NCI-H522 lung,> 100 µM
same,TGI,HCT-116 colon,> 100 µM
same,TGI,HOP-92 NSCLC,> 100 µM
same,TGI,A549 NSCLC,> 100 µM
same,TGI,MCF7 breast,> 100 µM
same,TGI,MDA-MB-231 breast,> 100 µM
same,TGI,RPMI-8226 leukemia,> 100 µM
same,TGI,UACC-62 melanoma,> 100 µM
same,TGI,MOLT-4 leukemia,> 100 µM
same,TGI,ACHN renal,> 100 µM
same,TGI,SW-620 colon,> 100 µM
same,TGI,U251 CNS,> 100 µM
same,TGI,CAKI-1 renal,> 100 µM
same,TGI,EKVX NSCLC,> 100 µM
same,TGI,LOX IMVI melanoma,> 100 µM
same,TGI,SNB-75 CNS,> 100 µM
same,TGI,A498 renal,> 100 µM
same,TGI,NCI-H23 lung,> 100 µM
same,TGI,MDA-N,> 100 µM
same,TGI,HOP-62 NSCLC,> 100 µM
same,TGI,SK-MEL-28 melanoma,> 100 µM
same,TGI,M14 melanoma,> 100 µM
same,TGI,NCI/ADR-RES ovarian,> 100 µM
same,TGI,OVCAR-8 ovarian,> 100 µM
same,TGI,DU-145 prostate,> 100 µM
same,TGI,UACC-257 melanoma,> 100 µM
same,TGI,PC-3 prostate,> 100 µM
same,TGI,SF-295 CNS,> 100 µM
